One experiment has as its target T1, IRAK1 (Homo sapiens, UniProt P51617).
T1 construct: His-TEV-IRAK1 (194-712); His (N); TEV cleavage site (N)
Nature of the experiment: IRAK1 enzymatic assay (ADP-Glo luminescence). Conditions: purified human recombinant His-TEV-IRAK1 (194-712). The format is biochemical. In outline: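 Recombinant human His-TEV-IRAK1 (194-712), 0.3 μg/ml, preincubated 15 min at RT with compounds (10 μM to 0.5 nM) in 50 mM Hepes pH 7.0, 10 mM MgCl2, 2 mM DTT, 0.1% BSA. ATP-started reaction run 2 hours at RT; ADP formed from ATP hydrolysis/autophosphorylation read by ADP-Glo luminescence.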

The target of a further experiment is T2, IRAK4 (Homo sapiens, UniProt Q9NWZ3).
T2 construct: His-TEV-IRAK4 (1-460); His (N); TEV cleavage site (N)
T2 sequence (Q9NWZ3 1-460): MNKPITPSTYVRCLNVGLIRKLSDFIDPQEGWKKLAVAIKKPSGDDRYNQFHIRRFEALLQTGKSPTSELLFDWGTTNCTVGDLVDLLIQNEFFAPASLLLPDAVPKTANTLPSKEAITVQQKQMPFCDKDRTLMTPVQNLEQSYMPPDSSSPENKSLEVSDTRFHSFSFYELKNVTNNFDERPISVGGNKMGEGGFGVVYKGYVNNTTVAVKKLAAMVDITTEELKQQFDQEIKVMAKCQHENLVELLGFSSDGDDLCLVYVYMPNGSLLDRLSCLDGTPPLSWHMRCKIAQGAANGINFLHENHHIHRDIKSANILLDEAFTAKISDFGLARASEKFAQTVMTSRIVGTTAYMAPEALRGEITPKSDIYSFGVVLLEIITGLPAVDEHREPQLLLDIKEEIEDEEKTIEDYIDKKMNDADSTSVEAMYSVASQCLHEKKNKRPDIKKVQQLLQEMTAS
The experiment can be described thus: IRAK4 enzymatic assay (ADP-Glo luminescence). It is filed as biochemical. As to conditions: purified human recombinant His-TEV-IRAK4 (1-460), ATP 2 μM. Put shortly: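 Recombinant His-TEV-IRAK4 (1-460) at 0.3 μg/ml preincubated 15 min at RT with compounds (10 μM to 0.5 nM) in Hepes pH 7.0 buffer with MgCl2/MnCl2. Reaction started with 2 μM ATP and 300 nM STK1-biotin peptide, run 2 h at RT. ADP formed read by ADP-Glo luminescence.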
A general note: ADP-Glo first removes unused ATP, then detects ADP through luciferase.

As usually defined, the IC50 is the concentration needed to halve the response being measured.

T1 sequence (P51617 194-712): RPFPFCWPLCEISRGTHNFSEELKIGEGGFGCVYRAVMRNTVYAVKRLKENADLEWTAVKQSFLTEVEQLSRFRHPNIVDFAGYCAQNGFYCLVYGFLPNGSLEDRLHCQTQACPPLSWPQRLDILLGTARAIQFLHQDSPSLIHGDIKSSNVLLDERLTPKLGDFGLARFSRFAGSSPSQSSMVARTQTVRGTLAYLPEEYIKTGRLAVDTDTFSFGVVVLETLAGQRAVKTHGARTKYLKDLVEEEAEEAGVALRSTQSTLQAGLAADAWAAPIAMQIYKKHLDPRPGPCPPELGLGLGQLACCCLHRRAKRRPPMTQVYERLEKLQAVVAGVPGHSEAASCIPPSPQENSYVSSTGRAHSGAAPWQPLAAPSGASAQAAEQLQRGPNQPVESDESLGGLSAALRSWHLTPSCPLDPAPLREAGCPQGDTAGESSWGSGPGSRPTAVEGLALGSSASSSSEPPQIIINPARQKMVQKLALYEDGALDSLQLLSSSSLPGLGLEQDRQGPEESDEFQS

For the molecule `Cc1ccc(C(=O)/N=c2\[nH]c3cc(N4CCOCC4=O)ccc3n2CCCO)cc1C(F)(F)F` [Compound 78, (E)-N-(1-(3-hydroxypropyl)-5-(3-oxomorpholino)-1H-benzo[d]imidazol-2(3H)-ylidene)-4-methyl-3-(trifluoromethyl)benzamide], the concentration for half-maximal inhibition (IC50) on IRAK1 is more than 1000 nM; on IRAK4 it was not above 100 nM.

Turning to `O=C(/N=c1\[nH]c2cc(N3CCOCC3=O)ccc2n1CCCO)c1cccc(C(F)F)c1` [Compound 79, (E)-3-(difluoromethyl)-N-(1-(3-hydroxypropyl)-5-(3-oxomorpholino)-1H-benzo[d]imidazol-2(3H)-ylidene)benzamide], the IC50 at IRAK1 and at IRAK4 was not above 100 nM throughout.

As for `O=C(/N=c1\[nH]c2cc(N3CCOCC3=O)ccc2n1C1CCS(=O)(=O)CC1)c1cccc(C(F)F)c1` [Compound 80, (E)-3-(difluoromethyl)-N-(1-(1,1-dioxidotetrahydro-2H-thiopyran-4-yl)-5-(3-oxomorpholino)-1H-benzo[d]imidazol-2(3H)-ylidene)benzamide], the IC50 at IRAK1 and at IRAK4 was not above 100 nM throughout.

For `O=C(/N=c1\[nH]c2cc(N3CCOCC3=O)ccc2n1CCCO)c1cc(F)cc(C(F)(F)F)c1` [Compound 81, (E)-3-fluoro-N-(1-(3-hydroxypropyl)-5-(3-oxomorpholino)-1H-benzo[d]imidazol-2(3H)-ylidene)-5-(trifluoromethyl)benzamide], the IC50 on IRAK1 and on IRAK4 was not above 100 nM throughout.

For the molecule `CS(=O)(=O)c1cccc(C(=O)/N=c2\[nH]c3cc(N4CCOCC4=O)ccc3n2CCCO)c1` [Compound 82, (E)-N-(1-(3-hydroxypropyl)-5-(3-oxomorpholino)-1H-benzo[d]imidazol-2(3H)-ylidene)-3-(methylsulfonyl)benzamide], the IC50 at IRAK1 was 100 to 1000 nM; at IRAK4, not above 100 nM.

Consider `O=C(/N=c1\[nH]c2cc(N3CCOCC3=O)ccc2n1CCCO)c1cccc(-n2cnnn2)c1` [Compound 83, (E)-N-(1-(3-hydroxypropyl)-5-(3-oxomorpholino)-1H-benzo[d]imidazol-2(3H)-ylidene)-3-(1H-tetrazol-1-yl)benzamide], for which the IC50 is 100 to 1000 nM on IRAK1 and not above 100 nM at IRAK4.

As to `O=C(/N=c1\[nH]c2cc(N3CCOCC3=O)ccc2n1CCCO)c1cccc(C(F)(F)F)n1` [Compound 84, (E)-N-(1-(3-hydroxypropyl)-5-(3-oxomorpholino)-1H-benzo[d]imidazol-2(3H)-ylidene)-6-(trifluoromethyl)picolinamide], the IC50 at IRAK1 is more than 1000 nM; at IRAK4, 100 to 1000 nM.

With `O=C(/N=c1\[nH]c2cc(N3CCOCC3=O)ccc2n1CCCO)c1cncc(C(F)(F)F)c1` [Compound 85, (E)-N-(1-(3-hydroxypropyl)-5-(3-oxomorpholino)-1H-benzo[d]imidazol-2(3H)-ylidene)-5-(trifluoromethyl)nicotinamide], the IC50 at IRAK1 is 100 to 1000 nM; at IRAK4, not above 100 nM.

With `O=C(/N=c1\[nH]c2cc(N3CCOCC3=O)ccc2n1CCCO)c1cccc(C(F)(F)F)c1` [Compound 86, (E)-N-(1-(3-hydroxypropyl)-5-(3-oxomorpholino)-1H-benzo[d]imidazol-2(3H)-ylidene)-3-(trifluoromethyl)benzamide], the IC50 at IRAK1 is 100 to 1000 nM; on IRAK4 it was not above 100 nM.

Turning to `C[S+]([O-])CCCCn1/c(=N/C(=O)c2cccc(C(F)F)c2)[nH]c2cc(N3CCOCC3=O)ccc21` (stereo not shown) [Compound 88], the IC50 on IRAK1 is 100 to 1000 nM; on IRAK4 it was not above 100 nM.

With `CSCCCCn1/c(=N/C(=O)c2cccc(C(F)F)c2)[nH]c2cc(N3CCOCC3=O)ccc21` [Compound 89, (E)-3-(difluoromethyl)-N-(1-(4-(methylthio)butyl)-5-(3-oxomorpholino)-1H-benzo[d]imidazol-2(3H)-ylidene)benzamide], the half-maximal inhibitory concentration (IC50) was more than 1000 nM at IRAK1 and 100 to 1000 nM on IRAK4.
